From patent publication US6248765A, “Imidazole derivatives as histamine receptor H3 (ANT) agonists” (priority 1995, dated 2001) come the findings set out here.

SMILES strings stand for the structures. Counter-ions that a name gives are not always drawn.

T1 sequence (Q9QYN8 whole entry): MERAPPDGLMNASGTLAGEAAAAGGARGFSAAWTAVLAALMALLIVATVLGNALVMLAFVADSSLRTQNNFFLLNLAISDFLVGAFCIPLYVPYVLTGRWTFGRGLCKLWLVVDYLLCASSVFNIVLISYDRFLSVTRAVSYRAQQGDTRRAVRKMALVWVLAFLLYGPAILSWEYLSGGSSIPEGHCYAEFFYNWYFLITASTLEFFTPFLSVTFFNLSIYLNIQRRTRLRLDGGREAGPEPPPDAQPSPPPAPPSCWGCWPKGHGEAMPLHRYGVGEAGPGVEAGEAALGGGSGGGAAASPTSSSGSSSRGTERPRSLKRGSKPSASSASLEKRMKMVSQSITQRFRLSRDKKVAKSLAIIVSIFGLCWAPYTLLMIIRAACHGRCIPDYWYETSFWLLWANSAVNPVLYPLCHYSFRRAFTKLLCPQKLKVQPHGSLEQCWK

The first assay concerns cerebral tele-methylhistamine. In words: antagonist effect in vivo: change in the level of cerebral tele-methylhistamine in mice. The conditions noted are these: Mus musculus, po, 1.5 h, read-out: Change in the level of cerebral tele-methylhistamine (relative to controls). Here is the method: Results are collated in Tables II and III below:
These various compounds were administered at a dose of 10 mg/kg p.o., and the mice sacrificed 90 min later.
For the molecule `O=C(c1ccc(OCCCc2c[nH]cn2)cc1)C1CC1` [Example 81, Cyclopropyl 4-(3-(1H-imidazol-4-yl)propyloxy)phenyl ketone], the change in vivo at 10 mg/kg was determined as 72%.

The assay is the same for the next values; noted with them: Mus musculus, po, 1.5 h; H3 antagonists; mice; 10 mg/kg p.o.; 90 min; read-out: Change in the level of cerebral tele-methylhistamine (relative to controls).
Take `CCCN(CCC)C(=O)OCCCc1c[nH]cn1` [Example 39, 3-(1H-Imidazol-4-yl)propyl-N,N-dipropyl carbamate]: the change in vivo at 10 mg/kg was found to be 84%.
Same read-out and setting: under `C=CCNC(=O)OCCCc1c[nH]cn1` [Example 112, 3-(1H-Imidazol-4-yl)propyl-N-(2-propenyl) carbamate] stands 98%.
The same measure, in the same setting: under `CCCC(=NO)c1ccc(OCCCc2c[nH]cn2)cc1` [Example 140, (4-(3-(1H-Imidazol-4-yl)propyloxy)phenyl)butanone oxime] stands 84%; under `Cc1ccc(OCCc2c[nH]cn2)cc1` [Example 160, 4-[2-(4-Methylphenoxy)ethyl]-1H-imidazole oxalate], 95%; under `c1nc(CCCOc2ccc3c(c2)CCCC3)c[nH]1` [Example 21, 4-[3-(1,2,3,4-Tetrahydro-6-naphthyloxy)propyl]-1H-imidazole], 79%.
Still for that read-out and setting: under `CCCCCNC(=O)OCCCc1c[nH]cn1` [Example 30, 3-(1H-Imidazol-4-yl)propyl-N-pentyl carbamate] stands 67%; under `CC(=O)c1ccc(OCCCc2c[nH]cn2)cc1` [Example 78, (4-(3-(1H-Imidazol-4-yl)propyloxy)phenyl)ethanone], 68%.

Another assay relates to plasma extravasation. In words: plasma extravasation induced in rats under the influence of capsaicin (tissue level of Evans blue). The settings on record: capsaicin 90 μg/kg i.v. Type of assay: in vivo. From the text: In contrast, we have discovered that measurement of the activity of the cerebral histaminic neurons in vivo, reflected by the level of tele-methylhistamine, a characteristic metabolite of released histamine, constitutes a more sensitive test of agonist activity. In effect, compounds displaying an intrinsic activity ≤25% in vitro cause, in vivo, a maximum or virtually maximum fall in the level of the tele-methylhistamine. Another sensitive test of H3 agonist activity, in this instance in relation to peripheral organs, consists in measuring the plasma extravasation induced in rats under the influence of capsaicin (90 μg/kg i.v.) and determined by measuring the tissue level of Evans blue, a dye administered at the same time as capsaicin, namely 5 min before infusion and sacrifice (Saria et al., Naunyn-Schmiedeberg's Arch. Pharmacol. 1983, 324: 212).
Regarding `O=C(NC(c1ccccc1)c1ccccc1)OCCCc1c[nH]cn1` [Example 2, 3-(1H-Imidazol-4-yl)propyl-N-(diphenylmethyl) carbamate], the “response in the capsaicin-induced plasma extravasation test compared with (R)-α-methylhistamine” value is on record as “a response akin to that of (R)-α-methylhistamine”.

The next assay concerns the target T1, histamine H3 receptor (Rattus norvegicus, UniProt Q9QYN8).
T1 construct: synthesized from [^3 H]histidine by synaptosomes of rat cerebral cortex; from tissue; host or cells: rat cerebral cortex synaptosomes
Kind of assay: H3 agonist effect: inhibition of [3H]histamine release from synaptosomes of rat cerebral cortex. Type of assay: biochemical. The conditions noted are these: in vitro, in words. How it is done:
The partial agonist effect of the compounds is evaluated by comparison of the maximum inhibition which they induce relative to the maximum inhibition induced by exogenous histamine or [R]-α-methylhistamine; the ratio of these two values giving the intrinsic activity of the compound with respect to the system.
In the case of `O=C(NC(c1ccccc1)c1ccccc1)OCCCc1c[nH]cn1` [Example 2, 3-(1H-Imidazol-4-yl)propyl-N-(diphenylmethyl) carbamate], the “behaviour in vitro at the H3 receptor” value is listed as “behaves essentially as an antagonist”.

The assay is the same for the next values; noted with them: in words.
As to `CCC(C)(C)NC(=O)OCCCc1c[nH]cn1` [Example 110, 3-(1H-Imidazol-4-yl)propyl N-(2-methyl-2-butyl)carbamate], the “functional class at the histamine H3 receptors (agonists)” value was “agonists or partial agonists”.
The same measure, in the same setting: under `CC(C)(C)CNC(=O)OCCCc1c[nH]cn1` [Example 111, N-(2,2-Dimethylpropyl)-3-(1H-imidazol-4-yl)propyl carbamate] stands “agonists or partial agonists”.

Still in this assay, the particulars now being: maximum inhibition relative to that of exogenous histamine or (R)-alpha-methylhistamine; in vitro; read-out: Intrinsic activity.
Turning to `CC(C)CCOCCCc1c[nH]cn1` [Example 5, 3-(1H-Imidazol-4-yl)propyl 3-methylbutyl ether], the Emax was 20%.
For the molecule `FC(F)(F)c1cccc(OCCCc2c[nH]cn2)c1` [Example 8, 4-[3-(3-Trifluoramethylphenoxy)propyl]-1H-imidazole], the Emax was found to be 40%.
Same read-out and setting: under `O=C(NC(c1ccccc1)c1ccccc1)OCCCc1c[nH]cn1` [Example 2, 3-(1H-Imidazol-4-yl)propyl-N-(diphenylmethyl) carbamate] stands about 20%.

The assay is the same for the next values; noted with them: rat cerebral cortex synaptosomes, inhibition of [3H]histamine release; read-out: EC50 (50% effective concentration of partial agonists).
On to `CC(C)CCOCCCc1c[nH]cn1` [Example 5, 3-(1H-Imidazol-4-yl)propyl 3-methylbutyl ether], for which the EC50 turned out to be 130 nM.
Still for that read-out and setting: under `FC(F)(F)c1cccc(OCCCc2c[nH]cn2)c1` [Example 8, 4-[3-(3-Trifluoramethylphenoxy)propyl]-1H-imidazole] stands 100 nM; under `O=C(NC(c1ccccc1)c1ccccc1)OCCCc1c[nH]cn1` [Example 2, 3-(1H-Imidazol-4-yl)propyl-N-(diphenylmethyl) carbamate], 100 nM.

For a further assay, the system named is cerebral tele-methylhistamine. Kind of assay: agonist effect in vivo: change in the level of cerebral tele-methylhistamine in mice. The conditions noted are these: H3 partial agonists; mice; 10 mg/kg p.o.; 90 min. Here is the method: The effect of a partial agonist in vivo is characterized by the fact that the maximum reduction in the level of tele-methylhistamine which it induces at high dose is smaller than the reduction induced by a reference H3 agonist.
These various compounds were administered at a dose of 10 mg/kg p.o. and the mice sacrificed 90 min later.
For `CC(=O)c1cccc(SCCc2c[nH]cn2)c1.O=C(O)C(=O)O` [Example 157, 4-[2-(3-Ethanoylphenylthio)ethyl]-1H-imidazole oxalate], the “Change in the level of cerebral tele-methylhistamine (relative to controls)” value is reported as -38%.
Same read-out and setting: under `CC(C)CCOCCCc1c[nH]cn1` [Example 5, 3-(1H-Imidazol-4-yl)propyl 3-methylbutyl ether] stands -52%; under `FC(F)(F)c1cccc(OCCCc2c[nH]cn2)c1` [Example 8, 4-[3-(3-Trifluoramethylphenoxy)propyl]-1H-imidazole], -41%; under `CC(C)(C)CNC(=O)OCCCc1c[nH]cn1` [Example 111, N-(2,2-Dimethylpropyl)-3-(1H-imidazol-4-yl)propyl carbamate], -34%.
`O=C(NC(c1ccccc1)c1ccccc1)OCCCc1c[nH]cn1` [Example 2, 3-(1H-Imidazol-4-yl)propyl-N-(diphenylmethyl) carbamate]: the “Change in the level of cerebral tele-methylhistamine (relative to controls)” value is -30%.

Staying with this assay, now noted: in vivo, in words.
As for `O=C(NC(c1ccccc1)c1ccccc1)OCCCc1c[nH]cn1` [Example 2, 3-(1H-Imidazol-4-yl)propyl-N-(diphenylmethyl) carbamate], the “response in the tele-methylhistamine test compared with (R)-α-methylhistamine” value is “a response akin to that of (R)-α-methylhistamine”.

The target in a further assay is T1, histamine H3 receptor. In words: H3 antagonist power: reversal of (R)-alpha-methylhistamine-induced inhibition of [3H]histamine release from synaptosomes of rat cerebral cortex. Type of assay: biochemical. The conditions noted are these: read-out: Ki (apparent dissociation constant as histamine antagonist at the H3 receptors).
`c1nc(CCCOCCC2CC3CCC2C3)c[nH]1` (centres unmarked) [Example 61, 2-(Bicyclo[2.2.1]hept-2-yl)ethyl 3-(1H-imidazol-4-yl)propyl ether]: the Ki was found to be 0.5 nM.
Still for that read-out and setting: under `Cc1nc(-c2ccc(OCCCc3c[nH]cn3)cc2)no1` [Example 149, 3-(1H-Imidazol-4-yl)propyl 4-(5-methyl-1,2,4-oxadiazol-3-yl)phenyl ether] stands 44 nM; under `CSc1ccc(OCCCc2c[nH]cn2)cc1` [Example 166, 4-[3-(4-Thiomethylphenoxy)propyl]-1H-imidazole oxalate], 3 nM.
`c1nc(CCCOc2ccc3c(c2)CCCC3)c[nH]1` [Example 21, 4-[3-(1,2,3,4-Tetrahydro-6-naphthyloxy)propyl]-1H-imidazole]: the Ki is 45 nM.
The same measure, in the same setting: under `c1ccc2cc(COCCCc3c[nH]cn3)ccc2c1` [Example 56, 3-(1H-Imidazol-4-yl)propyl 2-naphthylmethyl ether] stands 22 nM.
Regarding `CCCCCCCOCCCc1c[nH]cn1` [Example 64, 3-(1H-Imidazol-4-yl)propyl heptyl ether], the Ki was found to be 16 nM.
In the case of `Cc1cc(C)cc(NC(=O)OCCCc2c[nH]cn2)c1` [Example 115, N-(3,5-Dimethylphenyl)-3-(1H-imidazol-4-yl)propyl carbamate], the Ki came to 44 nM.
On the same count and under the same terms, under `CON=C(C)c1ccc(OCCCc2c[nH]cn2)cc1` [Example 93, (4-(3-(1H-Imidazol-4-yl)propyloxy)phenyl)ethanone O-methyloxime] stands 25 nM.
